Structures can show the parent of a compound that is named as a salt.
Columns and labels:
Assay type in all cases: cell-based
[1] = biological target: T1, 5-HT2C receptor (Homo sapiens, UniProt P28335); assay: R-SAT functional receptor assay, antagonist activity at 5-HT2C
T1 construct: expressed in transfected cells; host or cells: NIH3T3 cells, pSI mammalian expression vector
T1 sequence (P28335 33-458): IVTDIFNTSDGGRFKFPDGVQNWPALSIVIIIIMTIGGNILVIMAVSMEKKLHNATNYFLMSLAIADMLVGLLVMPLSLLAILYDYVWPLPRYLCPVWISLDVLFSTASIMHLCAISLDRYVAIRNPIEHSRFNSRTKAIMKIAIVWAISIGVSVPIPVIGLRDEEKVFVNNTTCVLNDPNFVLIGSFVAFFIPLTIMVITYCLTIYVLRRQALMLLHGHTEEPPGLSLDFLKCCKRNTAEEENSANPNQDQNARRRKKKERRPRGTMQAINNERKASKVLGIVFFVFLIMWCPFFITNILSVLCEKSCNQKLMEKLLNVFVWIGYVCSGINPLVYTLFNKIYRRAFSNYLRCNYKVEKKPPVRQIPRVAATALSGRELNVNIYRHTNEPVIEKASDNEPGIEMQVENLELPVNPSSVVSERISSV
Experimental: (§1) Receptor Selection and Amplification (R-SAT®) Assays. The functional receptor assay, Receptor Selection and Amplification Technology (R-SAT®), was used (with minor modifications from the procedure described previously (Brann, M. R. U.S. Pat. No. 5,707,798, 1998; Chem. Abstr. 1998, 128, 111548) to screen compounds for efficacy at the 5-HT2A receptor. Briefly, NIH3T3 cells were grown in 96 well tissue culture plates to 70-80% confluence. Cells were transfected for 12-16 h with plasmid DNAs using superfect (Qiagen Inc.) as per manufacturer's protocols. R-SAT's were generally performed with 50 ng/well of receptor and 20 ng/well of β-galactosidase plasmid DNA. All receptor and G-protein constructs used were in the pSI mammalian expression vector (Promega Inc) as described previously. The 5-HT2A or 5-HT2C receptor gene was amplified by nested PCR from brain cDNA using the oligodeoxynucleotides based on the published sequence (Saltzman et. al, Biochem. Biophys. Res. Comm. 1991, 181, 1469). For large-scale transfections, cells were transfected for 12-16 h, then trypsinized and frozen in DMSO. Frozen cells were later thawed, plated at 10,000-40,000 cells per well of a 96 well plate that contained drug. With both methods, cells were then grown in a humidified atmosphere with 5% ambient CO2 for five days. Media was then removed from the plates and marker gene activity was measured by the addition of the β-galactosidase substrate o-nitrophenyl β-D-galactopyranoside (ONPG, in PBS with 5% NP-40). The resulting colorimetric reaction was measured in a spectrophotometric plate reader (Titertek Inc.) at […]. All data were analyzed using the computer program XLFit (IDBSm). Efficacy is the percent maximal repression compared to repression by a control compound (ritanserin in the case of 5-HT2A). pIC50 is the negative of the log(IC50), where IC50 is the calculated concentration in Molar that produces 50% maximal repression. Various metabolites of N-(1-methylpiperidin-4-yl)-N-(4-fluorophenylmethyl)-N′-(4-(2-methylpropyloxy)phenylmethyl) carbamide, including the compounds of Formulae (I), (II), (III), (IV) and (V) as well as other metabolites, were assayed as described herein.

[2] = biological target: T2, 5-HT2A receptor (Homo sapiens, UniProt P28223); assay: R-SAT functional receptor assay, antagonist activity at 5-HT2A
T2 construct: expressed in transfected cells; host or cells: NIH3T3 cells, pSI mammalian expression vector
Experimental: as §1

[3] = biological target: T2, 5-HT2A receptor; assay: R-SAT functional receptor assay, inverse agonist activity at 5-HT2A
Experimental: as §1

[4] = biological target: T1, 5-HT2C receptor; assay: R-SAT functional receptor assay, inverse agonist activity at 5-HT2C
Experimental: as §1, with “Various metabolites of N-(1-methylpiperidin-4-yl)-N-(4-fluorophenylmethyl)-N′-(4-(2-methylpropyloxy)phenylmethyl) carbamide, including the compounds of Formulae (I), (II), (III), (IV) and (V) as well as other metabolites, were assayed as described herein.” left out

T2 sequence (P28223 whole entry): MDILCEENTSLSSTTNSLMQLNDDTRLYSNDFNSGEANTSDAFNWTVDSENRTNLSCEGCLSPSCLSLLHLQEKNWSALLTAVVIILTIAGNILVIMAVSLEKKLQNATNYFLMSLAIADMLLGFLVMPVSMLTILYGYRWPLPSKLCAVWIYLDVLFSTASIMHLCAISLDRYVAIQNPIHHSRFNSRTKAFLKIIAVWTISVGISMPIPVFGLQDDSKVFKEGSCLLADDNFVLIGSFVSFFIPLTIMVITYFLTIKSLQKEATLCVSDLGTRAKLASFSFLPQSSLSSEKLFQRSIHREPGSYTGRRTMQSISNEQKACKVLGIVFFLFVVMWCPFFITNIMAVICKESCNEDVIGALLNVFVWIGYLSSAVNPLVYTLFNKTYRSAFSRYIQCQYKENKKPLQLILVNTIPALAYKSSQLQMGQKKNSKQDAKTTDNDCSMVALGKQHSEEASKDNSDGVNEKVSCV

Structure (SMILES)	Ki [1] [nM]	Ki [2] [nM]	IC50 [3] [nM]	IC50 [4] [nM]
CN1CCC(N(Cc2ccc(F)cc2)C(=O)NCc2ccc(O)cc2)CC1 [Formula (I), N-(4-Fluorobenzyl)-N-(1-methylpiperidin-4-yl)-N′-(4-hydroxybenzyl)carbamide Hydrochloride]	316	12.6	31.6	
CC(C)COc1ccc(CNC(=O)N(Cc2ccc(F)cc2)C2CCNCC2)cc1 [Formula (II), N-(4-Fluorobenzyl)-N-(piperidin-4-yl)-N′-(4-isobutoxybenzyl)carbamide Hydrochloride]	100	1.26	2.51	
CN1CCC(N(Cc2ccc(F)cc2)C(=O)NCc2ccc(OCC(C)(C)O)cc2)CC1 [Formula (III), N-(4-Fluorobenzyl)-N-(1-methylpiperidin-4-yl)-N′-[4-(2-hydroxy)isobutoxybenzyl]carbamide Hydrochloride]	158	1	2	794
C[C@H](CO)COc1ccc(CNC(=O)N(Cc2ccc(F)cc2)C2CCN(C)CC2)cc1 [Formula (IV), N-(4-Fluorobenzyl)-N-(1-methyl-piperidin-4-yl)-N′-(4-(R)-[(3-hydroxy)-isobutoxy]benzyl)carbamide]	158		3.16	200
CC(C)COc1ccc(CNC(=O)N(Cc2ccc(F)cc2)C2CC[N+](C)([O-])CC2)cc1 (centres unmarked) [Formula (V), N-(4-Fluorobenzyl)-N-(1-methyl-1-oxopiperidin-4-yl)-N′-(4-isobutoxybenzyl)carbamide]	398	31.6	31.6	2000

Reference: patent publication US20090082342A1, “N-SUBSTITUTED PIPERIDINE DERIVATIVES AS SEROTONIN RECEPTOR AGENTS” (Acadia Pharmaceuticals, Inc., priority 2007, published 2009)
